{"source": "patent US20200390729A1", "about": "“OPHTHALMIC TOPICAL COMPOSITION COMPRISING DOBESILIC ACID FOR TREATING DISEASES OF THE POSTERIOR SEGMENT OF THE EYE” (LABORATORIOS SALVAT, S.A., priority 2017, published 2020)", "experiment": "Ocular distribution of CDO in rats, single dose topical ocular vs. oral", "format": "in vivo, Sprague Dawley (SD) rat", "settings": "rat", "protocol": "In Sprague Dawley (SD) rat, weighing approximately 200 g, CDO was administered by topical ocular instillation (10 μl/eye) at 10 mg/ml (composition 2 of Example 1), at 100 mg/ml (composition 5 of Example 1) or by oral gavage at 50 mg/kg, at 200 mg/kg or at 750 mg/kg in aqueous solution (from compositions 1, 3 and 4, respectively, of Example 1). At 15, 60, 180 and 360 minutes post-administration, animals were euthanized and plasma and ocular tissues including sclera, cornea, retina, vitreous humour/lens and optic nerve were collected.\nBioanalysis of CDO was performed depending on the type of matrix. In the case of plasma, proteins were precipitated using methanol. In the case of tissues, samples were grinded in a Mini Bead Beater using zirconium beads and methanol/water (1:1) (v/v) as solvent. After centrifugation, samples were analyzed by UPLC-MS/MS.\nChromatographic separation was carried out using an Acquity CSH Fluoro Phenyl column (1.7 μm, 50×2.1 mm). Mobile phase consisted of a gradient using 0.1% formic acid in water and acetonitrile from 5% to 45% in 4.5 min at a flow rate of 0.6 ml/min.\nWith regard to the mass spectrometric detection, the electrospray ionization source worked to record negative ions. Multiple Reaction Monitoring (MRM) acquisition mode of the deprotonated molecular ions was performed. The transition monitored for CDO was m/z 189.0→80.1 with a cone voltage of 45 V and collision energy of 25 eV.", "key": {"[1]": {"settings": "Sprague Dawley, cornea, topical eye 10 mg/ml (eye drop of 10 μl) = 0.1 mg, read-out: CDO concentrations Cornea"}, "[2]": {"settings": "Sprague Dawley, cornea, topical eye 100 mg/ml (eye drop of 10 μl) = 1 mg, read-out: CDO concentrations Cornea"}, "[3]": {"settings": "Sprague Dawley, optic nerve, oral 50 mg/Kg = 10 mg, read-out: CDO concentrations Optic nerve"}, "[4]": {"settings": "Sprague Dawley, plasma, oral 200 mg/Kg = 40 mg, read-out: CDO concentrations Plasma"}, "[5]": {"settings": "Sprague Dawley, plasma, oral 750 mg/Kg = 150 mg, read-out: CDO concentrations Plasma"}, "[6]": {"settings": "Sprague Dawley, retina/choroid, topical eye 10 mg/ml (eye drop of 10 μl) = 0.1 mg, read-out: CDO concentrations Retina/Choroid"}, "[7]": {"settings": "Sprague Dawley, retina, oral 200 mg/Kg = 40 mg, read-out: CDO concentrations Retina"}, "[8]": {"settings": "Sprague Dawley, retina, oral 750 mg/Kg = 150 mg, read-out: CDO concentrations Retina"}, "[9]": {"settings": "Sprague Dawley, retina, topical eye 100 mg/ml (eye drop of 10 μl) = 1 mg, read-out: CDO concentrations Retina"}, "[10]": {"settings": "Sprague Dawley, sclera, topical eye 10 mg/ml (eye drop of 10 μl) = 0.1 mg, read-out: CDO concentrations Sclera"}, "[11]": {"settings": "Sprague Dawley, sclera, topical eye 100 mg/ml (eye drop of 10 μl) = 1 mg, read-out: CDO concentrations Sclera"}, "[12]": {"settings": "Sprague Dawley, vitreous humour/lens, topical eye 10 mg/ml (eye drop of 10 μl) = 0.1 mg, read-out: CDO concentrations Vitreous humour/lens"}, "[13]": {"settings": "Sprague-Dawley, optic nerve, topical eye 10 mg/ml (eye drop of 10 μl) = 0.1 mg, read-out: CDO concentrations Optic nerve"}, "[14]": {"settings": "Sprague-Dawley, optic nerve, topical eye 100 mg/ml (eye drop of 10 μl) = 1 mg, read-out: CDO concentrations Optic nerve"}, "[15]": {"settings": "Sprague-Dawley, plasma, topical eye 10 mg/ml (eye drop of 10 μl) = 0.1 mg, read-out: CDO concentrations Plasma"}}, "note": "Where two headings read alike, the source gives them in different places."}
{"smiles": "O=S(=O)(O)c1cc(O)ccc1O", "note": "[CDO, Calcium dobesilate monohydrate]", "values": [{"measurement": "concentration at 0.25 h", "setting": "[1]", "value": 4610, "unit": "ng/g"}, {"measurement": "concentration at 1 h", "setting": "[1]", "value": 1010, "unit": "ng/g"}, {"measurement": "concentration at 3 h", "setting": "[1]", "value": 1990, "unit": "ng/g"}, {"measurement": "concentration at 0.25 h", "setting": "[2]", "value": 58000, "unit": "ng/g"}, {"measurement": "concentration at 1 h", "setting": "[2]", "value": 1720, "unit": "ng/g"}, {"measurement": "concentration at 3 h", "setting": "[2]", "value": 3110, "unit": "ng/g"}, {"measurement": "concentration at 3 h", "setting": "[3]", "value": 1890, "unit": "ng/g"}, {"measurement": "concentration at 6 h", "setting": "[3]", "value": 410, "unit": "ng/g"}, {"measurement": "concentration at 0.25 h", "setting": "[4]", "value": 3100, "unit": "ng/g"}, {"measurement": "concentration at 1 h", "setting": "[4]", "value": 9040, "unit": "ng/g"}, {"measurement": "concentration at 3 h", "setting": "[4]", "value": 11400, "unit": "ng/g"}, {"measurement": "concentration at 0.25 h", "setting": "[5]", "value": 12600, "unit": "ng/g"}, {"measurement": "concentration at 1 h", "setting": "[5]", "value": 28800, "unit": "ng/g"}, {"measurement": "concentration at 3 h", "setting": "[5]", "value": 47600, "unit": "ng/g"}, {"measurement": "concentration at 0.25 h", "setting": "[6]", "value": 1830, "unit": "ng/g"}, {"measurement": "concentration at 1 h", "setting": "[6]", "value": 600, "unit": "ng/g"}, {"measurement": "concentration at 3 h", "setting": "[6]", "value": 2150, "unit": "ng/g"}, {"measurement": "concentration at 0.25 h", "setting": "Sprague Dawley, retina/choroid, topical eye 100 mg/ml (eye drop of 10 μl) = 1 mg, read-out: CDO concentrations Retina/Choroid", "value": 17600, "unit": "ng/g"}, {"measurement": "concentration at 0.25 h", "setting": "[7]", "value": 110, "unit": "ng/g"}, {"measurement": "concentration at 1 h", "setting": "[7]", "value": 470, "unit": "ng/g"}, {"measurement": "concentration at 3 h", "setting": "[7]", "value": 1040, "unit": "ng/g"}, {"measurement": "concentration at 0.25 h", "setting": "[8]", "value": 670, "unit": "ng/g"}, {"measurement": "concentration at 1 h", "setting": "[8]", "value": 1340, "unit": "ng/g"}, {"measurement": "concentration at 3 h", "setting": "[8]", "value": 2420, "unit": "ng/g"}, {"measurement": "concentration at 0.25 h", "setting": "Sprague Dawley, retina, topical eye 10 mg/ml (eye drop of 10 μl) = 0.1 mg, read-out: CDO concentrations Retina", "value": 100, "unit": "ng/g"}, {"measurement": "concentration at 0.25 h", "setting": "[9]", "value": 2030, "unit": "ng/g"}, {"measurement": "concentration at 1 h", "setting": "[9]", "value": 640, "unit": "ng/g"}, {"measurement": "concentration at 3 h", "setting": "[9]", "value": 250, "unit": "ng/g"}, {"measurement": "concentration at 6 h", "setting": "[9]", "value": 130, "unit": "ng/g"}, {"measurement": "concentration at 0.25 h", "setting": "[10]", "value": 170, "unit": "ng/g"}, {"measurement": "concentration at 1 h", "setting": "[10]", "value": 330, "unit": "ng/g"}, {"measurement": "concentration at 3 h", "setting": "[10]", "value": 770, "unit": "ng/g"}, {"measurement": "concentration at 0.25 h", "setting": "[11]", "value": 3540, "unit": "ng/g"}, {"measurement": "concentration at 1 h", "setting": "[11]", "value": 1140, "unit": "ng/g"}, {"measurement": "concentration at 3 h", "setting": "[11]", "value": 220, "unit": "ng/g"}, {"measurement": "concentration at 0.25 h", "setting": "[12]", "value": 1480, "unit": "ng/g"}, {"measurement": "concentration at 1 h", "setting": "[12]", "value": 1680, "unit": "ng/g"}, {"measurement": "concentration at 3 h", "setting": "[12]", "value": 190, "unit": "ng/g"}, {"measurement": "concentration at 0.25 h", "setting": "[13]", "value": 5300, "unit": "ng/g"}, {"measurement": "concentration at 1 h", "setting": "[13]", "value": 850, "unit": "ng/g"}, {"measurement": "concentration at 6 h", "setting": "[13]", "value": 250, "unit": "ng/g"}, {"measurement": "concentration at 0.25 h", "setting": "[14]", "value": 13700, "unit": "ng/g"}, {"measurement": "concentration at 1 h", "setting": "[14]", "value": 2910, "unit": "ng/g"}, {"measurement": "concentration at 3 h", "setting": "[14]", "value": 1920, "unit": "ng/g"}, {"measurement": "concentration at 6 h", "setting": "[14]", "value": 2650, "unit": "ng/g"}, {"measurement": "concentration at 0.25 h", "setting": "[15]", "value": 10, "unit": "ng/g"}, {"measurement": "concentration at 1 h", "setting": "[15]", "value": 10, "unit": "ng/g"}]}
